Measurements as given in patent publication US7666989B2 (priority 2003, dated 2010).
Values after ≈ are worked out from the molar mass of the structure shown. Marks after values point to notes of the source that are not given here.

Columns and labels:
[1] = system: human lung cancer NCI-H460; experiment: Growth of human lung cancer NCI-H460 xenograft in nude mice; type: in vivo, BALB/c-nu nude mice; details: Cyclophosphamide 100 mg/kg i.p., then 80 mg/kg two weeks later
Experimental: The animals were then grouped based their tumor sizes. Each group included seven to eight animals.
(§1) The evaluation standard for efficacy:
(§2) T/C (%)>60 is ineffective;
One additional injection was given at 80 mg/kg two weeks later. […] The treatment contained a total of ten injections.

[2] = system: human colon cancer COLO 205; details: COLO 205 xenograft, hydroxycamptothecin 1 mg/kg i.p. once per day 15 days, then further courses
Excerpt: (§3) In this example, the animals used were BALB/c-nu nude mice, 6-8 weeks old. For each experiment, all animals were of the same sex.
(§4) Tumor cell lines: human brain glioma U251, human lung cancer cell line NCI-H460, human colon cancer cell line COLO205 were inoculated from in vitro culture into nude mice subcutaneously, the tumors were subcultured and kept.
(§5) Experimental Procedures: well-grown nude mice carrying well-grown tumors were selected and sacrificed by disjointing neck vertebra. The tumors were removed aseptically and were cut into pieces having a diameter of 2-3 mm by a scalpel. The pieces were inoculated into the axilla of nude mice subcutaneously by a needle. […] The length and width of tumors were measured by a vernier caliper. The animals were then grouped based their tumor sizes. Each group included seven to eight animals.
(§6) The length, width of the tumor and the body weight of the mice were measured twice per week. The tumor volume (TV) and relative tumor volume (RTV) were calculated. A graph indicating the changes of tumor size was plotted. At the end of this experiment, the tumors were taken out and weighed after the mice were sacrificed, and the inhibition rates of the medicament on tumor growth were calculated.
(§7) The formula for calculating tumor volume (TV) is: length×width^2÷2.
(§8) The formula for calculating relative tumor volume (RTV) is: Vt/Vo (wherein Vo is the TV value measured when the administration is started, Vt is the TV value measured after that).
(§9) T-test was used to determine the statistical difference of tumor weights, tumor volumes and RTV etc. between different groups of animal. The index used for evaluating the anti-tumor activity is the relative tumor growth rate T/C (%), the formula for which is: […]
as §1, §2
(§10) T/C (%)≦60 and P<0.05 after statistical analysis is effective.
Injectable hydroxycamptothecin (trade name: Xi Su, Wuhan Lishizhen Pharmaceuticals Inc., Huangshi Lishizhen Pharmaceuticals Group, P. R. China) was used as positive control, administered by intraperitoneal injection at the dose of 1 mg/kg, once per day. The administration was terminated after 15 consecutive days of administration. […] A single administration of 80 mg/kg hydroxycamptothecin was further given after two weeks. CPT was given to three treatment groups at the doses of 1.7 mg/kg, 5.0 mg/kg, 15.0 mg/kg respectively by intraperitoneal injection, once per day. The treatment contained a total of 15 injections.

[3] = system: human brain glioma U251
Excerpt: as §3, §4, §5, §6, §7, §8, §9, §1, §2, §10
The Carmustine (Renmin Pharmaceuticals, Amino Acid Inc. Tianjin, P. R. China) was used as the positive control, 40 mg/kg, administered by intraperitoneal injection for once. CPT was given to four groups at the doses of 0.6 mg/kg, 1.7 mg/kg, 5.0 mg/kg, 15.0 mg/kg respectively, administered by intraperitoneal injection. The treatment included ten injections.

[4] = system: U251 (human brain glioma cell); experiment: MTT cytotoxicity, U251; type: cell-based; details: U-251, 96 h, 4 days
Excerpt: (§11) Reagents: RPMI1640 is from GIBCO; MTT is from Bebco. Fetal bovine serum is purchased from Hangzhou SiJiQing Bioengineering Material Co. Ltd. (P. R. China).
(§12) Cell lines: COLO 205 (human colon cancer cell), NCI-H460 (human lung cancer cell), RPMI 8226 (human multiple myeloma cell), U251 (human brain glioma cell) are from ATCC, USA. HL-60 (human promyelocytic leukemia cell), MDA-MB-231, MDA-MB-435 (human breast cancer cell), SCLC (human small-cell lung cancer cell), H125 (human lung cancer cell) and PC-3 (human […] cancer cell).
(§13) The well-grown tumor cells were collected to prepare a cell suspension (1×10^4/ml) with RPMI 1640 medium containing 10% fetal bovine serum. The cell suspension was inoculated into a 96-well plate, 100 μL (containing 1000 tumor cells) per well. The plate was cultured in a 5% CO2 incubator at 37° C. for 24 hours, followed by addition of medicament.
(§14) A blank control and a positive control using 5-fluorouracil or adriamycin are employed in the experiment. […]
(§15) The supernatant was discarded. […] After gently shaking, the OD values were measured by a BIORAD 550 enzyme analyzer, with the detection wavelength being 540 nm and the reference wavelength being 450 nm.
(§16) Dose-response curves were generated by plotting with the cell inhibition rates and different concentrations of medicament, and the half inhibitory concentrations (IC50) were calculated.

[5] = system: COLO 205 (human colon cancer cell); experiment: MTT cytotoxicity, COLO 205; type: cell-based; details: Homo sapiens, 96 h, 4 days, read-out: IC50
Excerpt: as §11, §12, §13, §14, §15, §16

[6] = system: MDA-MB-435 (human breast cancer cell); experiment: MTT cytotoxicity, MDA-MB-435; type: cell-based; details: Homo sapiens, 96 h, 4 days, read-out: IC50
Excerpt: as §11, §12, §13, §14, §15, §16

[7] = system: NCI-H460 (human lung cancer cell); experiment: MTT cytotoxicity, NCI-H460; type: cell-based; details: 96 h, 4 days
Excerpt: as §11, §12, §13, §14, §15, §16

[8] = system: MDA-MB-231 (human breast cancer cell); experiment: MTT cytotoxicity, MDA-MB-231; type: cell-based; details: 96 h, 4 days
Excerpt: as §11, §12, §13, §14, §15, §16

[9] = system: PC-3 (human cancer cell); experiment: MTT cytotoxicity, PC-3; type: cell-based; details: Homo sapiens, 96 h, 4 days
Excerpt: as §11, §12, §13, §14, §15, §16

[10] = system: H125 (human lung cancer cell); experiment: MTT cytotoxicity, H125; type: cell-based; details: Homo sapiens, NCI-H125, 96 h, 4 days, read-out: IC50
Excerpt: as §11, §12, §13, §14, §15, §16

[11] = system: RPMI 8226 (human multiple myeloma cell); experiment: MTT cytotoxicity, RPMI 8226; type: cell-based; details: Homo sapiens, 96 h, 4 days, read-out: IC50
Excerpt: as §11, §12, §13, §14, §15, §16

[12] = system: SCLC (human small-cell lung cancer cell); experiment: MTT cytotoxicity, SCLC; type: cell-based; details: Homo sapiens, 96 h, 4 days, read-out: IC50
Excerpt: as §11, §12, §13
A blank control and a positive control using 5-fluorouracil or adriamycin are employed in the experiment. The CPT samples have five concentrations, three parallel wells for each concentration. The cells were cultured in an incubator with 5% CO2 at 37° C. for 4 days. Then the culture medium was removed and 100 μL MTT solution (0.4 mg/ml in RPMI 1640) was added to each well. The plate was incubated at 37° C. for four additional hours.
The supernatant was discarded. 150 μl DMSO was added into each well in order to solubilize Fomazan granulates. After gently shaking, the OD values were measured by a BIORAD 550 enzyme analyzer, with the detection wavelength being 540 nm and the reference wavelength being 450 nm.
as §16

[13] = system: HL-60 (human promyelocytic leukemia cell); experiment: MTT cytotoxicity, HL-60; type: cell-based; details: 96 h, 4 days
Excerpt: as §11, §12, §13, §14, §15, §16

[14] = U251 xenograft, Carmustine 40 mg/kg i.p. once

O=P1(N(CCCl)CCCl)NCCCO1 (stereo not shown) [Cyclophosphamide, reference compound]
Body Weight (g) End [1]: 16.1 ± 2.2 g | RTV [1]: 3.67 ± 2.15 | T/C (%) [1]: 61.4% | Tumor volume (mm^3) End [1]: 1121 ± 434 mm^3 | Tumor weight [1]: 0.96 ± 0.35 g | Body Weight (g) Start ([1]; baseline): 20.0 ± 1.3 g | Tumor volume (mm^3) Start ([1]; baseline): 179 ± 52 mm^3 | Inhibition rate (%) ([1]; by tumor weight): 40.4%

CC[C@@]1(O)C(=O)OCc2c1cc1n(c2=O)Cc2cc3cc(O)ccc3nc2-1 [Hydroxycamptothecin, hydroxycamptothecin, reference compound]
Body Weight (g) End [2]: 21.0 ± 2.5 g | RTV [2]: 3.92 ± 1.91 | T/C (%) [2]: 47.2% | Tumor volume (mm^3) End [2]: 845 ± 66** mm^3 | Tumor weight [2]: 0.66 ± 0.26 g | Body Weight (g) Start ([2]; baseline): 20.4 ± 0.9 g | Tumor volume (mm^3) Start ([2]; baseline): 150 ± 34 mm^3 | Inhibition rate (%) ([2]; by tumor weight): 66.3%

O=NN(CCCl)C(=O)NCCCl [Carmustine, reference compound]
RTV [3, 14]: 0.54 ± 0.29 | T/C (%) [3, 14]: 16.0% | Tumor volume (mm^3) End [3, 14]: 109 ± 78** mm^3 | Tumor weight [3, 14]: 0.09 ± 0.06 g | Tumor volume (mm^3) Start ([3]; U251 xenograft, Carmustine 40 mg/kg i.p. once, baseline): 153 ± 35 mm^3 | Inhibition rate (%) ([3]; U251 xenograft, Carmustine 40 mg/kg i.p. once, by tumor weight): 93.0% | Body Weight (g) End ([3]; mouse, in vivo): 19.4 ± 2.1 g | Body Weight (g) Start ([3]; mouse, in vivo): 22.8 ± 0.7 g

O=c1[nH]cc(F)c(=O)[nH]1 [Fu, 5-fluorouracil, reference compound]
IC50 [4]: 0.981 ± 0.077 µg/mL (≈ 7.54 µM) | IC50 [5]: 0.826 ± 0.051 µg/mL (≈ 6.35 µM) | IC50 [6]: 0.199 ± 0.138 µg/mL (≈ 1.53 µM) | IC50 [7]: 0.566 ± 0.016 µg/mL (≈ 4.35 µM) | IC50 [8]: 0.318 ± 0.055 µg/mL (≈ 2.44 µM) | IC50 [9]: 4.93 ± 0.753 µg/mL (≈ 37.9 µM) | IC50 [10]: 0.138 ± 0.031 µg/mL (≈ 1.06 µM) | IC50 [11]: < 0.1 µg/mL | IC50 [12]: 0.617 ± 0.0257 µg/mL (≈ 4.74 µM)

COc1cccc2c1C(=O)c1c(O)c3c(c(O)c1C2=O)C[C@@](O)(C(=O)CO)C[C@@H]3O[C@H]1C[C@H](N)[C@H](O)[C@H](C)O1 [Adr, Adriamycin]
IC50 [13]: 0.006 µg/mL (≈ 0.011 µM)
